Data set [1] has as its target T1, unphosphorylated VEGF-R2Δ50 (Homo sapiens, UniProt P35968, DEL940-989/E990V).
T1 construct: VEGF-R2Δ50 contains residues 806–939 and 990–1171; made in house; host or cells: baculovirus/insect cell system
In words: VEGF-R2 coupled spectrophotometric assay, unphosphorylated construct (FLVK). It is filed as biochemical. Particulars: for inhibition at 0.05 µM: % inhibition at 50 nM compound, read-out: FLVK Ki % inh @ 50 nM. The text has this:
This construct determines the ability of a test compound to inhibit tyrosine kinase activity. A construct (VEGF-R2Δ50) of the cytosolic domain of human vascular endothelial growth factor receptor 2 (VEGF-R2) lacking the 50 central residues of the 68 residues of the kinase insert domain was expressed in a baculovirus/insect cell system. Of the 1356 residues of full-length VEGF-R2, VEGF-R2Δ50 contains residues 806–939 and 990–1171, and also one point mutation (E99OV) within the kinase insert domain relative to wild-type VEGF-R2. Autophosphorylation of the purified construct was performed by incubation of the enzyme at a concentration of 4 μM in the presence of 3 mM ATP and 40 mM MgCl2 in 100 mM HEPES, pH 7.5, containing 5% glycerol and 5 mM DTT, at 4° C. for 2 h. […] See Parast et al., Biochemistry, 37,16788–16801 (1998).
(§1) The production of ADP from ATP that accompanies phosphoryl transfer was coupled to oxidation of NADH using phosphoenolpyruvate (PEP) and a system having pyruvate kinase (PK) and lactic dehydrogenase (LDH). The oxidation of NADH was monitored by following the decrease of absorbance at 340 nm (e340=6.22 cm^−1 mM^−1) using a Beckman DU 650 spectrophotometer. Assay conditions for phosphorylated VEGF-R2A50 (indicated as FLVK-P in the tables below) were the following: 1 mM PEP; 250 μM NADH; 50 units of LDH/mL; 20 units of PK/mL; 5 mM DTT; 5.1 mM poly(E4Y1); 1 mM ATP; and 25 mM MgCl2 in 200 mM HEPES, pH 7.5. Assay conditions for unphosphorylated VEGF-R2Δ50 (indicated as FLVK in the tables) were the following: 1 mM PEP; 250 μM NADH; 50 units of LDH/mL; 20 units of PK/mL; 5 mM DTT; […]; 3 mM ATP; and 60 mM MgCl2 and 2 mM MnCl2 in 200 mM HEPES, pH 7.5. Assays were initiated with 5 to 40 nM of enzyme. Ki values were determined by measuring enzyme activity in the presence of varying concentrations of test compounds. The data were analyzed using Enzyme Kinetic and Kaleidagraph software.

Data set [2] addresses T2, FGF-R1 (Homo sapiens, UniProt P11362, C488A/C584S/L457V).
T2 construct: starting from the endogenous methionine residue 456 to glutamate 766; made in house; host or cells: baculovirus vector expression system
In words: Fibroblast Growth Factor (FGF-R) spectrophotometric assay. Format: biochemical. Particulars: 1 μM compound; read-out: FGF-P % inhibit @1 μM.
Description: The intracellular kinase domain of human FGF-R1 was expressed using the baculovirus vector expression system starting from the endogenous methionine residue 456 to glutamate 766, according to the residue numbering system of Mohammadi et al., Mol. Cell. Biol., 16, 977–989 (1996). In addition, the construct also has the following 3 amino acid substitutions: L457V, C488A, and C584S.
as §1
The spectrophotometric assay was carried out as described above for VEGF-R2, except for the following changes in concentration: FGF-R=50 nM, ATP=2 mM, and poly(E4Y1)=15 mM.

For data set [3], the system named is human umbilical vein endothelial cells (HUVEC). In words: HUVEC Proliferation Assay (VEGF-stimulated). It is filed as cell-based. On the procedure:
This assay determines the ability of a test compound to inhibit the growth factor-stimulated proliferation of human umbilical vein endothelial cells (“HUVEC”). HUVEC cells (passage 3–4, Clonetics, Corp.) were thawed into EGM2 culture medium (Clonetics Corp) in T75 flasks. Fresh EGM2 medium was added to the flasks 24 hours later. Four or five days later, cells were exposed to another culture medium (F12K medium supplemented with 10% fetal bovine serum (FBS), 60 μg/mL endothelial cell growth supplement (ECGS), and 0.1 mg/mL heparin). Exponentially-growing HUVEC cells were used in experiments thereafter. Ten to twelve thousand HUVEC cells were plated in 96-well dishes in 100 μl of rich, culture medium (described above). The cells were allowed to attach for 24 hours in this medium. The medium was then removed by aspiration and 105 μl of starvation media (F12K+1% FBS) was added to each well. After 24 hours, 15 μl of test agent dissolved in 1% DMSO in starvation medium or this vehicle alone was added into each treatment well; the final DMSO concentration was 0.1%. One hour later, 30 μl of VEGF (30 ng/mL) in starvation media was added to all wells except those containing untreated controls; the final VEGF concentration was 6 ng/mL. Cellular proliferation was quantified 72 hours later by MTT dye reduction, at which time cells were exposed for 4 hours MTT (Promega Corp.). Dye reduction was stopped by addition of a stop solution (Promega Corp.) and absorbance at 595λ was determined on a 96-well spectrophotometer plate reader.
IC50 values were calculated by curve-fitting the response of A^595 to various concentrations of the test agent; typically, seven concentrations separated by 0.5 log were employed, with triplicate wells at each concentration. For screening compound library plates, one or two concentrations (one well per concentration) were employed, and the % inhibition was calculated by the following formula: % inhibition=(control−test)[…](control−starvation) where
control=A^595 when VEGF is present without test agent
test=A^595 when VEGF is present with test agent
starvation=A^595 when VEGF and test agent are both absent.

Data set [4] relates to HUVEC. Nature of the data set: bFGF Huvec. It is filed as cell-based. As to conditions: Homo sapiens.
Data set [5] deals with T3, LCK (Homo sapiens, UniProt P06239, C224D/P223M).
T3 construct: starting from amino acid residue 223 to the end of the protein at residue 509; made in house; host or cells: insect cells
Nature of the data set: Lymphocyte-Specific Protein-Tyrosine Kinase (LCK) spectrophotometric assay. Particulars: 1 μM compound; read-out: LckP* % inhibit @1 μM. Format: biochemical.

A short description of data set [6]: Human Liver Microsome (HLM) Assay. Format: in vitro ADME. On the procedure: Compound metabolism in human liver microsomes was measured by LC-MS analytical assay procedures as follows. First, human liver microsomes (HLM) were thawed and diluted to 5 mg/mL with cold 100 mM potassium phosphate (KPO4) buffer. Appropriate amounts of KPO4 buffer, NADPH-regenerating solution (containing B-NADP, glucose-6-phosphate, glucose-6-phosphate dehydrogenase, and MgCl2), and HLM were preincubated in 13×100 mm glass tubes at 37 C. for 10 min. (3 tubes per test compound—triplicate). Test compound (5 µM final) was added to each tube to initiate reaction and was mixed by gentle vortexing, followed by incubation at 37° C. […] Samples were centrifuged at 4000 rpm for 20 min. to precipitate proteins and salt (Beckman Allegra 6KR, S/N ALK98DO6, #634). Supernatant was transferred to new 12×75 mm glass tubes and evaporated by Speed-Vac centrifugal vacuum evaporator. Samples were reconstituted in 200 μL 0.1% formic acid/acetonitrile (90/10) and vortexed vigorously to dissolve. The samples were then transferred to separate polypropylene microcentrifuge tubes and centrifuged at 14000×g for 10 min. (Fisher Micro 14, S/N M0017580). […]
The combined compound samples were injected into the LC-MS system, composed of a Hewlett-Packard HP 1100 diode array HPLC and a Micromass Quattro II triple quadruple mass spectrometer operating in positive electrospray SIR mode (programmed to scan specifically for the molecular ion of each test compound. Each test compound peak was integrated at each timepoint. […]
A general note: Liver microsomes are a subcellular fraction often used to study metabolism.

The target in data set [7] is T4, PDGFRβ (Homo sapiens, UniProt P09619).
T4 construct: expressed in transfected cells; host or cells: porcine aorta endothelial (PAE) cells
Nature of the data set: PAE-PDGFRβ Phosphorylation in PAE-PDGFRB Cells Assay. It is filed as cell-based. As to conditions: PAE cells overexpressing human PDGFRβ; read-out: PAE PDGFR autophos IC50. On the procedure: This assay determines the ability of a test compound to inhibit the autophosphorylation of PDGFRβ in porcine aorta endothelial (PAE)-PDGFRβ cells. PAE cells that overexpress human PDGFRβ were used in this assay. The cells were cultured in Ham's F12 media supplemented with 10% fetal bovine serum (FBS) and 400 ug/ml G418. Twenty thousands cells were seeded in each well of a 96-well plate in 50 μL of growth media and allowed to attach for 6 hours at 37° C. Cells were then exposed to the starvation media (Ham's F12 media supplemented with 0.1% FBS) for 16 hours. After the starvation period was over, 10 μL of test agent in 5% DMSO in starvation media were added to the test wells and 10 μL of the vehicle (5% DMSO in starvation media) were added into the control wells. The final DMSO concentration in each well was 0.5%. Plates were incubated at 37° C. for 1 hour and the cells were then stimulated with 1 μg/mL PDGF-BB (R & D System) in the presence of 2 mM Na3VO4 for 8 minutes. The cells were washed once with 1 mm Na3VO4 in HBSS and lysed by adding 50 μL per well of lysis buffer. One hundred μL of dilution buffer were then added to each well and the diluted cell lysate was transferred to a 96-well goat ant-rabbit coated plate (Pierce), which was pre-coated with Rabbit anti Human PDGFRβ antibody (Santa Cruz). The plates were incubated at room temperature for 2 hours and washed seven times with 1% Tween 20 in PBS. HRP-PY20 (Santa Cruz) was diluted and added to the plate for a 30-minute incubation. Plates were then washed again and TMB peroxidase substrate (Kirkegaard & Perry) was added for a 10-minute incubation. One hundred μL of 0.09 N H2SO4 was added into each well of the 96-well plate to stop the reaction. Phosphorylation status was assessed by spectrophotometer reading at 450 nm. IC50 values were calculated by curve fitting using a four-parameter analysis.

The structures appear in SMILES notation. pIC50: −log10 of the molar value.

T1 sequence (P35968 with tags, fused parts or gaps DEL940-989/E990V limits assumed): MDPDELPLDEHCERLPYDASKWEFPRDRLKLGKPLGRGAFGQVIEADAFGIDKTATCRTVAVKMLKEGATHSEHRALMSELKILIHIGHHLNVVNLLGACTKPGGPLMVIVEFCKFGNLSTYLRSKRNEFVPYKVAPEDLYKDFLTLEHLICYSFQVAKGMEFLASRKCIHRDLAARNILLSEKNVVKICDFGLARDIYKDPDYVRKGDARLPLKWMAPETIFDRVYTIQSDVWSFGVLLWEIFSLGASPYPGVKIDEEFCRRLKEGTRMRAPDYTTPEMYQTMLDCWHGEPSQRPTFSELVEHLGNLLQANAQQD
T2 sequence (P11362 456-766 L457V/C488A/C584S): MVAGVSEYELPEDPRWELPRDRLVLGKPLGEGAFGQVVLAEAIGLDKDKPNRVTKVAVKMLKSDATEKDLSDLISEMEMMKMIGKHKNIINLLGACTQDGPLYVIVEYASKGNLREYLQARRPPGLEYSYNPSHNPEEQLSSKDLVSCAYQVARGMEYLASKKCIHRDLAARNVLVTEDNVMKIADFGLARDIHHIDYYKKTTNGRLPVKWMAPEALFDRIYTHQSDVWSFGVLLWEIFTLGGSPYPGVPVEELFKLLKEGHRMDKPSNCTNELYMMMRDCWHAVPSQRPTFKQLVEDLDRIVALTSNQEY
T3 sequence (P06239 223-509 P223M/C224D): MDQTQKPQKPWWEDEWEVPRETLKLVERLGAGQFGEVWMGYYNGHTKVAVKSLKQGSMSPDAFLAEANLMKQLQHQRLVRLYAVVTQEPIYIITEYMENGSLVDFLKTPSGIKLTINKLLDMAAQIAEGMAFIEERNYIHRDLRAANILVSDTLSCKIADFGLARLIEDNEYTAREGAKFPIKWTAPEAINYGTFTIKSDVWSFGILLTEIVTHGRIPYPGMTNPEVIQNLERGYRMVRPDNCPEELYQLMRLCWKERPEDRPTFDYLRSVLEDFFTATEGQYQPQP
T4 sequence (P09619 33-1106): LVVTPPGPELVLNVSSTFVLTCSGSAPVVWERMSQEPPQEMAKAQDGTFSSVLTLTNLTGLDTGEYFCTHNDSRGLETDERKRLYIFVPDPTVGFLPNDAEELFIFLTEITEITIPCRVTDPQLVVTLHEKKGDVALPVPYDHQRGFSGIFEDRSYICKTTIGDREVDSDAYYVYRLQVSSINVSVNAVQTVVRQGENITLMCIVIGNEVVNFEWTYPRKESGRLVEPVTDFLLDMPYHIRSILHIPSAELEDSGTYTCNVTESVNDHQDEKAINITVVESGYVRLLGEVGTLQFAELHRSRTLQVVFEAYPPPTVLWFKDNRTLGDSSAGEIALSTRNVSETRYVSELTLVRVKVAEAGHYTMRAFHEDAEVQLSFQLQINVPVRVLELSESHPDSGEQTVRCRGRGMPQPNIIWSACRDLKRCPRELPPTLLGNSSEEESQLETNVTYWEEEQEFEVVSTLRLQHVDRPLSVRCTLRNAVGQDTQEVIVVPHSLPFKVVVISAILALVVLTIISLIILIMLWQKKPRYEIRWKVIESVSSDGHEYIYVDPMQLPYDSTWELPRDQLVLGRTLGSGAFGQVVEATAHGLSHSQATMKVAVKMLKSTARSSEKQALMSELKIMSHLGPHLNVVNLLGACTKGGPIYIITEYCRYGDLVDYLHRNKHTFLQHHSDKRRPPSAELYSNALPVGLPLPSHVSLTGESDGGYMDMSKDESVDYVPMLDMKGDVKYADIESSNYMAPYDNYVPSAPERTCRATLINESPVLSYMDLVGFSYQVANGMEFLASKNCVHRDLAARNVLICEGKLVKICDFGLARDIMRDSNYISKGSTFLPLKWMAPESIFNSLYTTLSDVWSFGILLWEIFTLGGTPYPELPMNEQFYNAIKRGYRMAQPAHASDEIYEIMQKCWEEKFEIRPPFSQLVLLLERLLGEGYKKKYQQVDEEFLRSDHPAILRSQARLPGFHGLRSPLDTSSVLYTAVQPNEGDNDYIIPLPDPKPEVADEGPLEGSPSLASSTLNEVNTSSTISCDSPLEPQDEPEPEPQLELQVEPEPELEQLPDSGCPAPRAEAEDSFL

Consider `Cc1ccnc(/C=C/c2n[nH]c3cc(Nc4ccccc4C(=O)NCc4cc(C)nn4C)ccc23)c1` [Example 41, N-(2,5-Dimethyl-2H-pyrazol-3-ylmethyl)-2-{3-[(E)-2-(4-methyl-pyridin-2-yl)-vinyl]-1H-indazol-6-ylamino}-benzamide], for which the inhibition at 0.05 µM in data set [1] was 45%. For the same compound, the inhibition at 1 µM in data set [2] came to 11%. The pIC50 (commonly −log10 of the IC50, conventionally taken in molar units) in data set [3] is 8.19. In addition, in data set [4], the IC50 (in general, the concentration at which inhibition is half-maximal) was found to be 3780 nM.
With `C=CCONC(=O)c1ccccc1Nc1ccc2c(/C=C/c3ccccn3)n[nH]c2c1` [Example 3(b), N-Allyloxy-2-[3-((E)-2-pyridin-2-yl-vinyl)-1H-indazol-6-ylamino]-benzamide], the inhibition at 0.05 µM in data set [1] turned out to be 98%. Further, the inhibition at 1 µM turned out to be 27% in data set [5] and 96% in data set [2]. The pIC50 in data set [3] was 8.24. Moreover, the “% remaining (HLM)” value in data set [6] (@2 h) is recorded as 84@2 h %.
In the case of `CONC(=O)c1ccccc1Nc1ccc2c(/C=C/c3ccccn3)n[nH]c2c1` [Example 3(a), N-Methoxy-2-[3-((E)-2-pyridin-2-yl-vinyl)-1H-indazol-6-ylamino]-benzamide], the inhibition at 0.05 µM in data set [1] is 98%. The inhibition at 1 µM turned out to be 30% in data set [5] and 99% in data set [2]. Besides, the pIC50 in data set [3] is 7.90.
In the case of `Cc1cc(C)nc(/C=C/c2n[nH]c3cc(Nc4ccccc4C(=O)NCC#CC4CC4)ccc23)c1` [Example 18, N-(3-Cycloprop-2-ynyl)-2-{3-[(E)-2-(4,6-dimethyl-pyridin-2-yl)-vinyl]-1H-indazol-6-ylamino}-benzamide], the inhibition at 0.05 µM in data set [1] came to 94%. Besides, the inhibition at 1 µM in data set [2] worked out at 59%. The compound also returned an IC50 in data set [4] of 1880 nM.
Take `C=C(C)CNC(=O)c1ccccc1Nc1ccc2c(/C=C/c3cc(C)cc(C)n3)n[nH]c2c1` [Example 15, 2-{3-[2-(4,6-Dimethyl-pyridin-2-yl)-vinyl]-1H-indazol-6-ylamino}-N-(2-methyl-allyl)-benzamide]: in data set [1], the inhibition at 0.05 µM came to 64%. Besides, the inhibition at 1 µM in data set [2] was found to be 29%. The negative logarithm of the IC50 (pIC50) in data set [3] is 8.82; in data set [7], 7.91. The compound also yielded an IC50 in data set [4] of 1610 nM.
`O=C(NCc1ccccc1)c1ccccc1Nc1ccc2c(/C=C/c3ccccn3)n[nH]c2c1` [Example 3(g), N-Benzyl-2-[3-((E)-2-pyridin-2-yl-vinyl)-1H-indazol6-ylamino]-benzamide]: the inhibition at 0.05 µM in data set [1] was 95%. Moreover, the inhibition at 1 µM in data set [5] worked out at 28%; in data set [2], 72%. In data set [3], this compound showed a pIC50 of 8.96. In data set [6] (@0.5 h), the “% remaining (HLM)” value is 72@0.5 h %.
In the case of `Cc1cc(CNC(=O)c2ccccc2Nc2ccc3c(/C=C/c4ccccn4)n[nH]c3c2)n(C)n1` [Example 65, N-(2,5-Dimethyl-2H-pyrazol-3-ylmethyl)-2-[3-(2-pyridin-2-yl-vinyl)-1H-indazol-6-ylamino]-benzamide], affinity in data set [1] (cell prints nM instead of % inhibition) was put at a Ki of 3.11 nM. Moreover, the pIC50 was 8.47 in data set [3] and 8.24 in data set [7]. In data set [6] (@0.5 h), the “% remaining (HLM)” value was 86@0.5 h %.
For `Cc1cc(CNC(=O)c2ccccc2Nc2ccc3c(/C=N/n4cccc4)n[nH]c3c2)n(C)n1` [Example 61, N-(2,5-Dimethyl-2H-pyrazol-3-ylmethyl)-2-[3-(pyrrol-1-yliminomethyl)-1H-indazol-6-ylamino]-benzamide], in data set [1], the inhibition at 0.05 µM worked out at 65%. Moreover, in data set [2], the inhibition at 1 µM was determined as 14%. In addition, the negative logarithm of the IC50 (pIC50) in data set [3] was 8.19. In data set [4], this compound had a half-maximal inhibitory concentration (IC50) of 662 nM.

Values taken from patent US7053107B2, “Indazole compounds and pharmaceutical compositions for inhibiting protein kinases, and methods for their use” (Agouron Pharmaceuticals, Inc., priority 2002, dated 2006).
